As a reminder, the IC50 is the concentration at which inhibition is half-maximal. Higher therefore signals weaker potency in that assay.

Common to all, as to type: biochemical
The target in experiment [1] is JAK3 (Homo sapiens (Human), UniProt P52333). In words: JAK3 Inhibition Assay (Example D, Omnia kinase fluorescence peptide substrate assay). A digest of the protocol:
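Omnia Sox-peptide kinetic read (ex 360 nm, em 485 nm, every 50 s over 45 min) tracked phosphorylation of 10 μM Y7 peptide by 2 nM recombinant JAK3 at 1 mM ATP. Buffer: 25 mM HEPES pH 7.4, 10 mM MgCl2, 0.01% Triton X-100, 1 mM DTT, with 2% DMSO final.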

The target in experiment [2] is JAK1 (Homo sapiens (Human), UniProt P23458). In words: JAK1 Inhibition Assay (Example B, Omnia kinase fluorescence peptide substrate assay). A digest of the protocol: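 Kinetic fluorescence read (360 nm excitation, 485 nm emission, every 50 s over 45 min) of Omnia Y12 peptide (8 μM) phosphorylation by 12.5 nM human JAK1 at 1 mM ATP. Buffer: HEPES pH 7.4, MgCl2, Triton X-100, DTT; 2% DMSO. IC50 = concentration giving 50 POC on logistic curve.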
Sequence of JAK1 (P23458 whole entry): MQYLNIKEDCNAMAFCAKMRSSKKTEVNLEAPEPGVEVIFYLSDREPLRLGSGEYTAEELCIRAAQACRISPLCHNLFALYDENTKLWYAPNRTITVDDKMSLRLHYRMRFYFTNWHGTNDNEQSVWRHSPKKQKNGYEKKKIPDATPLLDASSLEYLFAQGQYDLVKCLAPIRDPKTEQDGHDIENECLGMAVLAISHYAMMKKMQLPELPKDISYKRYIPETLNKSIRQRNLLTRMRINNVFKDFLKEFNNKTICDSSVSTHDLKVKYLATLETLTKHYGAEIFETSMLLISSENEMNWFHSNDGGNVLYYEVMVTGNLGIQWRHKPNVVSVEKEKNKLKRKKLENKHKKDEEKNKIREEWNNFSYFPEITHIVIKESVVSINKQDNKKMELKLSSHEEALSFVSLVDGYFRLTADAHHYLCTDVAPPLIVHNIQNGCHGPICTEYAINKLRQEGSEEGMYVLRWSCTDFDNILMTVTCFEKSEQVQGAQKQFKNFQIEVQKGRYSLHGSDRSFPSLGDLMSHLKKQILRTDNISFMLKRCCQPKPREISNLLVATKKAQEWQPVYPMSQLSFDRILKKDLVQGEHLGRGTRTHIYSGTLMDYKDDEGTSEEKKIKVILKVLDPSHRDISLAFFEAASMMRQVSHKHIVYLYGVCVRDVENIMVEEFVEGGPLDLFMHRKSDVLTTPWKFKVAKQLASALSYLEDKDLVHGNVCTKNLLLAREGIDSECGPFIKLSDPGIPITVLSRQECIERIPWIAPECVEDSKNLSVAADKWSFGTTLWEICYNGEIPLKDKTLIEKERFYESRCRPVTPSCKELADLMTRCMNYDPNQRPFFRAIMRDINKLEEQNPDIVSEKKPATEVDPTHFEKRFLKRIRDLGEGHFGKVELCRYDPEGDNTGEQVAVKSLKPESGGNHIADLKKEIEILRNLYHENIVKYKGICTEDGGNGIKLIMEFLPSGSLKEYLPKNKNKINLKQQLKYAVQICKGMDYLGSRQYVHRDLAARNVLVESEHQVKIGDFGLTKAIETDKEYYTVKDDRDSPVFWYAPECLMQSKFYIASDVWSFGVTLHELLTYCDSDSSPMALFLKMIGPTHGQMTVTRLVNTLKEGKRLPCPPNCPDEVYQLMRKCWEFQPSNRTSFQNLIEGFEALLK

Experiment [3] deals with JAK2 (Homo sapiens (Human), UniProt O60674). In words: JAK2 Inhibition Assay (Example C, Omnia kinase fluorescence peptide substrate assay). As to conditions: JAK2 Enzyme IC50 1 mM ATP, averaged IC50 ranges. A digest of the protocol:
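Kinetic fluorescence read of Omnia Y7 peptide (10 μM) phosphorylation, ex 360/em 485 nm every 50 s over 45 min, by 4 nM JAK2 at 1 mM ATP. Buffer 25 mM HEPES pH 7.4, 10 mM MgCl2, 0.01% Triton X-100, 1 mM DTT; final DMSO 2%. Percent-of-control values fitted by 4-parameter logistic for IC50.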

Experiment [4] deals with Human Tyk2 kinase domain (Homo sapiens (Human), UniProt P29597). In words: Tyk2 Inhibition Assay (Example A, Omnia kinase fluorescence peptide substrate assay). Conditions: TYK2 Enzyme IC50 1 mM ATP, averaged IC50 ranges. The gist of the method:
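IC50 values come from a 4-parameter logistic fit of percent-of-control data, with compounds at 2% final DMSO. Reactions held 1 nM His-tag-cleaved Tyk2 (aa 886–1187), 8 μM Omnia Y12 peptide and 1 mM ATP in pH 7.4 HEPES buffer with 10 mM MgCl2, Triton X-100 and DTT. Sox fluorescence (360/485 nm) was monitored kinetically over 45 min.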

Setting [5] is: JAK1 Enzyme IC50 1 mM ATP, 1 mM ATP, averaged IC50 ranges.

Structures can show the parent of a compound that is named as a salt. Where two headings read alike, the source gives them in different places.

Sequence of Human Tyk2 kinase domain (P29597 886-1187): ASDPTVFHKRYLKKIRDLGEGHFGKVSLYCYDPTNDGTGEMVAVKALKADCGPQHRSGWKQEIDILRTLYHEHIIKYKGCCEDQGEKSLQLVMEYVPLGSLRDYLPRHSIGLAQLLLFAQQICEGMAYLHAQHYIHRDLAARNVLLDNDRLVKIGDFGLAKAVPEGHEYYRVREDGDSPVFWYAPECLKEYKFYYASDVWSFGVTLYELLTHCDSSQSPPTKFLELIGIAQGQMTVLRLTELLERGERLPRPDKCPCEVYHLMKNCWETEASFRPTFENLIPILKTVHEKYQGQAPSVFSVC
Sequence of JAK2 (O60674 whole entry): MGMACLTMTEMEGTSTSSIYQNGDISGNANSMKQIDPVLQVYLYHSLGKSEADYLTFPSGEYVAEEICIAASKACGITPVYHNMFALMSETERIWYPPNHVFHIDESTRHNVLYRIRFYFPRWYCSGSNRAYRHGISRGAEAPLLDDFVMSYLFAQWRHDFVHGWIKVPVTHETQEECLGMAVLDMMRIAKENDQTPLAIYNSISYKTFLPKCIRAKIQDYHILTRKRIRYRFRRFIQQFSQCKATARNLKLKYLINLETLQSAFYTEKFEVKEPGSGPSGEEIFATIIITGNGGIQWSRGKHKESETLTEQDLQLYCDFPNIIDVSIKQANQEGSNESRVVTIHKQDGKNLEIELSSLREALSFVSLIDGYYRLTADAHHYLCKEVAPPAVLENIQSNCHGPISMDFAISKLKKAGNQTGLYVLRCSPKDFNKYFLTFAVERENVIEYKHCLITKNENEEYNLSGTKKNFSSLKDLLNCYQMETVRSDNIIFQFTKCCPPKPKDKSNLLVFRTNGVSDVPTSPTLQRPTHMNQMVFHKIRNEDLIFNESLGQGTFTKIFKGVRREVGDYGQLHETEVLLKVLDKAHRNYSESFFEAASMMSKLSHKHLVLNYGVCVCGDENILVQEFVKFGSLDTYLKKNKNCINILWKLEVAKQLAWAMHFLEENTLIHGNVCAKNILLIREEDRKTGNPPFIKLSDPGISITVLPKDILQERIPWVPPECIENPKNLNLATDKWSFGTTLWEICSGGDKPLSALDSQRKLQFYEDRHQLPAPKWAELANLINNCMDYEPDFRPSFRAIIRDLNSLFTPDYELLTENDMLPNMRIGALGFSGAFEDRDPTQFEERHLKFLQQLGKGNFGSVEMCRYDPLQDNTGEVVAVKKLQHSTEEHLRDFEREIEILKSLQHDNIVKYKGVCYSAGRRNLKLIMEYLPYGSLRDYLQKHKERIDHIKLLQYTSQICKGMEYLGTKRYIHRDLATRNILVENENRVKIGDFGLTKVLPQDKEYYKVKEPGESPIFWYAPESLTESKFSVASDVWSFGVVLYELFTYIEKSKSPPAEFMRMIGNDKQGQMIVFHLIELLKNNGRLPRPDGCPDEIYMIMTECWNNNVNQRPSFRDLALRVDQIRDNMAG
Sequence of JAK3 (P52333 whole entry): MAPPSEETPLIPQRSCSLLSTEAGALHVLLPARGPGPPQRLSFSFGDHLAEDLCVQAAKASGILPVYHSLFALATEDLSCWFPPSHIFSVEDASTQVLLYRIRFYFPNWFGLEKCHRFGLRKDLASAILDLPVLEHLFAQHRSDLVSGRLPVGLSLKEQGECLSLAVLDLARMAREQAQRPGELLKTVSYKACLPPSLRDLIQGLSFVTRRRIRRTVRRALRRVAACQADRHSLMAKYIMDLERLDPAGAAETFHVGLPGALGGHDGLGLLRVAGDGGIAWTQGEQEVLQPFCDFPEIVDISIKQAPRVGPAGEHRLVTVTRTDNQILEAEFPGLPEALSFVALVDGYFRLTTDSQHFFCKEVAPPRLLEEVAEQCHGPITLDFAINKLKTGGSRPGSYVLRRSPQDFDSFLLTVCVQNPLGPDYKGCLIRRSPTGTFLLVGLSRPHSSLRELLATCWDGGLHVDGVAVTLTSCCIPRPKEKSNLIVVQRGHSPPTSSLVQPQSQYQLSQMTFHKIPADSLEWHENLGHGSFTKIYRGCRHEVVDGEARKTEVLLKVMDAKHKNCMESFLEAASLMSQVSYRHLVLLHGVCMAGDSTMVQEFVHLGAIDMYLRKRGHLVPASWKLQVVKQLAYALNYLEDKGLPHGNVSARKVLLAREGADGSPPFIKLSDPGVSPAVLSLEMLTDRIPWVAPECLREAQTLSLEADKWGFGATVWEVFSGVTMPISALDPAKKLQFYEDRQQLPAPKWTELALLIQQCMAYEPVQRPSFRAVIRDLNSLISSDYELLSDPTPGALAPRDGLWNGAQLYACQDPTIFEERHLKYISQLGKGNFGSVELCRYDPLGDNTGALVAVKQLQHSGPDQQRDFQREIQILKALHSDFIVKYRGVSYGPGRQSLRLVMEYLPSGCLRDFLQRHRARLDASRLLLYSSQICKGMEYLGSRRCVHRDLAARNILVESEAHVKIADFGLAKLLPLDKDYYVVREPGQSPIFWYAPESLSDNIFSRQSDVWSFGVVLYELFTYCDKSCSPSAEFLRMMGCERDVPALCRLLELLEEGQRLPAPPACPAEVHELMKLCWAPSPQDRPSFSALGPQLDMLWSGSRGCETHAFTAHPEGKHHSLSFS

As for `CCC(CC)n1cc(-c2nc(-c3cnn(CC[C@@H](O)CO)c3)cn3nccc23)cn1` [Example 64, (R)-4-(4-(4-(1-(pentan-3-yl)-1H-pyrazol-4-yl)pyrazolo[1,5-a]pyrazin-6-yl)-1H-pyrazol-1-yl)butane-1,2-diol], the IC50 in experiment [1] was in the range of 1 to 10 µM; in experiment [2] (setting [5]) it was 0.1 to 1 µM; in experiment [3], 0.01 to 0.1 µM; in experiment [4], 0.01 to 0.1 µM.

Consider `CCC(CC)n1cc(-c2nc(-c3cnn(C[C@H](O)[C@H](C)O)c3)cn3nccc23)cn1` [Example 65, (2S,3S)-1-(4-(4-(1-(pentan-3-yl)-1H-pyrazol-4-yl)pyrazolo[1,5-a]pyrazin-6-yl)-1H-pyrazol-1-yl)butane-2,3-diol], for which the IC50 in experiment [1] is 1 to 10 µM; in experiment [2] (setting [5]), 0.1 to 1 µM; in experiment [3], 0.01 to 0.1 µM; in experiment [4] it was 0.01 to 0.1 µM.

As to `CCC(c1ccccc1)n1cc(-c2nc(-c3cnn(C[C@@H](O)CO)c3)cn3nccc23)cn1` (stereo partly drawn) [Example 66, (2R)-3-(4-(4-(1-(1-phenylpropyl)-1H-pyrazol-4-yl)pyrazolo[1,5-a]pyrazin-6-yl)-1H-pyrazol-1-yl)propane-1,2-diol], the half-inhibitory concentration (IC50) was in the range of 0.1 to 1 µM in experiment [1], 0.01 to 0.1 µM in experiment [2] (setting [5]), 0.01 to 0.1 µM in experiment [3] and 0.01 to 0.1 µM in experiment [4].

For the molecule `CCC(C)n1cc(-c2nc(-c3cnn(C[C@@H](O)CO)c3)cn3nccc23)cn1` (stereo partly drawn) [Example 67, (2R)-3-(4-(4-(1-(sec-butyl)-1H-pyrazol-4-yl)pyrazolo[1,5-a]pyrazin-6-yl)-1H-pyrazol-1-yl)propane-1,2-diol], the concentration for half-maximal inhibition (IC50) in experiment [1] was 0.1 to 1 µM; in experiment [2] (setting [5]), 0.1 to 1 µM; in experiment [3], 0.01 to 0.1 µM; in experiment [4], 0.1 to 1 µM.

On to `CC[C@H](C)n1cc(-c2nc(-c3cnn(C[C@@H](O)CO)c3)cn3nccc23)cn1` [Example 68, (R)-3-(4-(4-(1-((S)-sec-butyl)-1H-pyrazol-4-yl)pyrazolo[1,5-a]pyrazin-6-yl)-1H-pyrazol-1-yl)propane-1,2-diol], for which the half-inhibitory concentration (IC50) in experiment [1] lay in the range of 1 to 10 µM; in experiment [2] (setting [5]), 0.1 to 1 µM; in experiment [3], 0.01 to 0.1 µM; in experiment [4] it was 0.01 to 0.1 µM.

As to `CC[C@@H](C)n1cc(-c2nc(-c3cnn(C[C@@H](O)CO)c3)cn3nccc23)cn1` [Example 69, (R)-3-(4-(4-(1-((R)-sec-butyl)-1H-pyrazol-4-yl)pyrazolo[1,5-a]pyrazin-6-yl)-1H-pyrazol-1-yl)propane-1,2-diol], the IC50 is 1 to 10 µM in experiment [1], 1 to 10 µM in experiment [2] (setting [5]), 0.1 to 1 µM in experiment [3] and 0.1 to 1 µM in experiment [4].

Consider `CC[C@H](C)n1cc(-c2nc(-c3cnn(C[C@H](O)CO)c3)cn3nccc23)cn1` [Example 70, (S)-3-(4-(4-(1-((S)-sec-butyl)-1H-pyrazol-4-yl)pyrazolo[1,5-a]pyrazin-6-yl)-1H-pyrazol-1-yl)propane-1,2-diol hydrochloride], for which the IC50 in experiment [1] was in the range of 1 to 10 µM; in experiment [2], 0.1 to 1 µM; in experiment [3], 0.01 to 0.1 µM; in experiment [4] it was 0.01 to 0.1 µM.

With `CC[C@@H](C)n1cc(-c2nc(-c3cnn(C[C@H](O)CO)c3)cn3nccc23)cn1` [Example 71, (S)-3-(4-(4-(1-((R)-sec-butyl)-1H-pyrazol-4-yl)pyrazolo[1,5-a]pyrazin-6-yl)-1H-pyrazol-1-yl)propane-1,2-diol], the concentration for half-maximal inhibition (IC50) in experiment [1] is 1 to 10 µM; in experiment [2] (setting [5]) it was 1 to 10 µM; in experiment [3], 0.1 to 1 µM; in experiment [4] it was 0.1 to 1 µM.

As for `CCC[C@H](C)n1cc(-c2nc(-c3cnn(C[C@@H](O)CO)c3)cn3nccc23)cn1` [Example 72, (R)-3-(4-(4-(1-((S)-pentan-2-yl)-1H-pyrazol-4-yl)pyrazolo[1,5-a]pyrazin-6-yl)-1H-pyrazol-1-yl)propane-1,2-diol], the 50% inhibitory concentration (IC50) in experiment [1] is 1 to 10 µM; in experiment [2] (setting [5]) it was 0.1 to 1 µM; in experiment [3], 0.1 to 1 µM; in experiment [4] it was 0.1 to 1 µM.

In the case of `CCC[C@@H](C)n1cc(-c2nc(-c3cnn(C[C@@H](O)CO)c3)cn3nccc23)cn1` [Example 73, (R)-3-(4-(4-(1-((R)-pentan-2-yl)-1H-pyrazol-4-yl)pyrazolo[1,5-a]pyrazin-6-yl)-1H-pyrazol-1-yl)propane-1,2-diol], the half-inhibitory concentration (IC50) lay in the range of 1 to 10 µM in experiment [1], 1 to 10 µM in experiment [2] (setting [5]), 0.01 to 0.1 µM in experiment [3] and 0.01 to 0.1 µM in experiment [4].

With `CCC[C@@H](C)n1cc(-c2nc(-c3cnn(C[C@H](O)CO)c3)cn3nccc23)cn1` [Example 74, (S)-3-(4-(4-(1-((R)-pentan-2-yl)-1H-pyrazol-4-yl)pyrazolo[1,5-a]pyrazin-6-yl)-1H-pyrazol-1-yl)propane-1,2-diol], the IC50 in experiment [1] was in the range of 1 to 10 µM; in experiment [2] (setting [5]), 1 to 10 µM; in experiment [3], 0.1 to 1 µM; in experiment [4] it was 0.01 to 0.1 µM.

As to `CC(C)C[C@H](C)n1cc(-c2nc(-c3cnn(C[C@@H](O)CO)c3)cn3nccc23)cn1` [Example 75, (R)-3-(4-(4-(1-((S)-4-methylpentan-2-yl)-1H-pyrazol-4-yl)pyrazolo[1,5-a]pyrazin-6-yl)-1H-pyrazol-1-yl)propane-1,2-diol], the 50% inhibitory concentration (IC50) in experiment [1] was in the range of 1 to 10 µM; in experiment [2] (setting [5]), 1 to 10 µM; in experiment [3] it was 0.1 to 1 µM; in experiment [4], 0.1 to 1 µM.

In the case of `CC(C)C[C@H](C)n1cc(-c2nc(-c3cnn(C[C@H](O)CO)c3)cn3nccc23)cn1` [Example 76, (S)-3-(4-(4-(1-((S)-4-methylpentan-2-yl)-1H-pyrazol-4-yl)pyrazolo[1,5-a]pyrazin-6-yl)-1H-pyrazol-1-yl)propane-1,2-diol], the IC50 lay within 1 to 10 µM in experiment [1], 1 to 10 µM in experiment [2] (setting [5]), 0.1 to 1 µM in experiment [3] and 0.1 to 1 µM in experiment [4].

Turning to `CC(C)C[C@@H](C)n1cc(-c2nc(-c3cnn(C[C@@H](O)CO)c3)cn3nccc23)cn1` [Example 77, (R)-3-(4-(4-(1-((R)-4-methylpentan-2-yl)-1H-pyrazol-4-yl)pyrazolo[1,5-a]pyrazin-6-yl)-1H-pyrazol-1-yl)propane-1,2-diol], the IC50 in experiment [1] is 1 to 10 µM; in experiment [2] (setting [5]), 1 to 10 µM; in experiment [3], 0.1 to 1 µM; in experiment [4], 0.1 to 1 µM.

Take `CC(C)C[C@@H](C)n1cc(-c2nc(-c3cnn(C[C@H](O)CO)c3)cn3nccc23)cn1` [Example 78, (S)-3-(4-(4-(1-((R)-4-methylpentan-2-yl)-1H-pyrazol-4-yl)pyrazolo[1,5-a]pyrazin-6-yl)-1H-pyrazol-1-yl)propane-1,2-diol]: the half-inhibitory concentration (IC50) in experiment [1] lay within 1 to 10 µM; in experiment [2] (setting [5]) it was 1 to 10 µM; in experiment [3] it was 0.1 to 1 µM; in experiment [4], 0.1 to 1 µM.

Regarding `CCC(C1CC(F)(F)C1)n1cc(-c2nc(-c3cnn(C[C@@H](O)CO)c3)cn3nccc23)cn1` (stereo partly drawn) [Example 79, (2R)-3-(4-(4-(1-(1-(3,3-difluorocyclobutyl)propyl)-1H-pyrazol-4-yl)pyrazolo[1,5-a]pyrazin-6-yl)-1H-pyrazol-1-yl)propane-1,2-diol], the IC50 in experiment [1] fell in the range of 1 to 10 µM; in experiment [2] it was 0.01 to 0.1 µM; in experiment [3] it was 0.01 to 0.1 µM; in experiment [4], 0.01 to 0.1 µM.

Consider `CCC(CC)n1cc(-c2nc(-c3cnn(C(CO)CO)c3)cn3nccc23)cn1` [Example 81, 2-(4-(4-(1-(pentan-3-yl)-1H-pyrazol-4-yl)pyrazolo[1,5-a]pyrazin-6-yl)-1H-pyrazol-1-yl)propane-1,3-diol], for which the IC50 in experiment [1] lay within 1 to 10 µM; in experiment [2], 0.1 to 1 µM; in experiment [3] it was 0.01 to 0.1 µM; in experiment [4], 0.01 to 0.1 µM.

Consider `CCC[C@H](C)n1cc(-c2nc(-c3cnn(C(CO)CO)c3)cn3nccc23)cn1` [Example 82, (S)-2-(4-(4-(1-(pentan-2-yl)-1H-pyrazol-4-yl)pyrazolo[1,5-a]pyrazin-6-yl)-1H-pyrazol-1-yl)propane-1,3-diol], for which the half-maximal inhibitory concentration (IC50) is 1 to 10 µM in experiment [1], 0.1 to 1 µM in experiment [2], 0.01 to 0.1 µM in experiment [3] and 0.1 to 1 µM in experiment [4].

As for `CCC[C@@H](C)n1cc(-c2nc(-c3cnn(C(CO)CO)c3)cn3nccc23)cn1` [Example 83, (R)-2-(4-(4-(1-(pentan-2-yl)-1H-pyrazol-4-yl)pyrazolo[1,5-a]pyrazin-6-yl)-1H-pyrazol-1-yl)propane-1,3-diol], the IC50 in experiment [1] was in the range of 1 to 10 µM; in experiment [2], 1 to 10 µM; in experiment [3], 0.01 to 0.1 µM; in experiment [4], 0.01 to 0.1 µM.

Regarding `CC[C@H](C)n1cc(-c2nc(-c3cnn(C(CO)CO)c3)cn3nccc23)cn1` [Example 84, (S)-2-(4-(4-(1-(sec-butyl)-1H-pyrazol-4-yl)pyrazolo[1,5-a]pyrazin-6-yl)-1H-pyrazol-1-yl)propane-1,3-diol], the 50% inhibitory concentration (IC50) in experiment [1] lay in the range of 1 to 10 µM; in experiment [2] it was 0.01 to 0.1 µM; in experiment [3] it was 0.01 to 0.1 µM; in experiment [4], 0.01 to 0.1 µM.

These data come from US10189845B2, “4,6-substituted-pyrazolo[1,5-a]pyrazines as janus kinase inhibitors” (ARRAY BIOPHARMA INC., priority 2014, dated 2019).
